Reference: US20040141912A1, “Method for targeting chemical compounds to cells and pharmaceutical compositions used therein” (priority 2001, published 2004)
“Also recorded” adds a separate entry of the source.

Tests used:
Jurkat cells [1] = experiment: FACS analysis of DDC uptake by Jurkat cells induced to undergo apoptosis by anti-Fas antibody (PI co-staining); type: cell-based, human
Procedure: FIG. 3: Cultured Jurkat cells (A) were induced to undergo apoptosis by anti-Fas antibody (0.1 μg/ml) for three hours. Subsequently, both control cells (A and C) and apoptotic cells (B and D) were then incubated with 50 μM of DDC in the presence (C and D) and absence (A and B) of 1 μM of rottlerin, an inhibitor of PKCδ. Prior to FACS analysis, cells were also co-stained with propidium iodide (PI), a marker of membrane disintegration during late phases of cell death. In the shown dot plot, the left lower quadrant represents the healthy, non-stained fraction of cells. The right lower quadrant represents the newly formed population of cells in the early stages of apoptosis. These cells are PLS-activated cells, yet still maintaining membrane integrity and thus excluding PI. Cells binding both DDC and PI, i.e., cells in the late stages of apoptosis are represented in the right upper quadrant. The induction of apoptosis was associated with the emergence of a marked, distinct population of cells in the early stages of the apoptotic process, selectively binding DDC and occupying the right lower quadrant of the plot. […] UV axis denotes fluorescence intensity of DDC; FL2 axis denotes fluorescence intensity of PI.
FIG. 4: Jurkat cells were induced to undergo apoptosis by treatment with anti-Fas Ab (0.1 μg/ml) for three hours. Subsequently, cells were co-incubated with 50 μM of DDC and PI, in the presence of 1 mM of CaCl2, or under conditions of calcium deprivation (i.e., co-administration of the calcium chelators BAPTA and EGTA). Binding of DDC and PI was evaluated by FACS.
FIG. 4A: A and C: control cells; B and D: apoptotic cells; A and B: with Ca^2+; C and D: deprivation of Ca^2+. The lower left quadrant in each dot plot represents the healthy non-stained fraction of cells. The lower right quadrant represents the newly formed population of cells in the early stages of apoptosis, characterized by activation of PLS, but still maintaining membrane integrity. […] However, DDC binding to the cells in early apoptosis was markedly lost upon inhibition of PLS by calcium deprivation (B versus D).
Cultured Jurkat cells were grown as described in Example 1, and apoptosis was then triggered by treatment with anti-Fas Ab (0.1 μg/ml) for three hours, thus inducing […] activation in these cells.
In order to inhibit PLS activity in the apoptotic cells, rottlerin was used (Calbiochem, Germany). […] Subsequent to induction of apoptosis, cells were incubated for 40 minutes with rottlerin, at a concentration of 1 μM, were then subjected to treatment with DDC at a concentration of […] and immediately taken for FACS analysis (FIG. 3).
Inhibition of PLS activity in the apoptotic cells was also achieved by reduction of ambient Ca^2+ levels. Following induction of apoptosis, both control and apoptotic cells (1×10^7 cells) were subjected to Ca^2+-deprivation, by co-treatment with BAPTA (20 μM) and EGTA (1 mM) for 30 minutes. Cells were then treated with DDC (250 μM) and propidium iodide (PI). Binding of DDC to these Ca^2+-deprived cells and to control, Ca^2+-treated (1 mM) cells was analyzed by FACS, and the dot plot is shown in FIG. 4A. The lower left quadrant in each dot plot represents the healthy fraction of cells. The lower right quadrant represents the newly-formed population of cells in the early stages of apoptosis, still maintaining membrane integrity but characterized by activation of PLS. As shown, these cells manifest DDC binding while excluding PI. The upper right quadrant represents cells in the late stages of apoptosis, characterized by disintegration of the plasma membrane, thus unselectively permeable to compounds including PI, that is normally excluded from healthy cells.
Induction of apoptosis is a major pathway for the activation of PLS. […] For this purpose, apoptosis was triggered in cultured Jurkat cells by treatment with anti-Fas antibody. […]

Jurkat cells [2] = experiment: as above; type: cell-based, human; remark: listed apart in the source

With `CN(C)c1cccc2c(S(=O)(=O)NC(CSSCC(NS(=O)(=O)c3cccc4c(N(C)C)cccc34)C(=O)O)C(=O)O)cccc12` (stereo not shown) [DDC] the “Binding of DDC to cells in the late stages of apoptosis upon calcium deprivation” value (Jurkat cells [1]; PI-permeable cells, BAPTA + EGTA) was “no effect of PLS inhibition; also recorded: did not affect binding of DDC”, the “Cells in the early stages of apoptosis binding DDC (right lower quadrant)” value (Jurkat cells [1]; apoptotic cells (anti-Fas 0.1 μg/ml 3 h), absence of rottlerin) was 46% and the “Uptake of DDC by cells in the early stages of apoptosis” value (Jurkat cells [1]; apoptotic cells (anti-Fas), with Ca2+ 1 mM) was 38.4%. For the same compound, the “Uptake of DDC by cells in the early stages of apoptosis” value (Jurkat cells [1]; apoptotic cells, Ca2+-deprivation: BAPTA 20 μM + EGTA 1 mM, 30 min) was 8.89%, the “Cells in the early stages of apoptosis binding DDC (right lower quadrant)” value (Jurkat cells [1]; apoptotic cells, rottlerin 1 μM (PKCδ inhibitor), 40 min) was 7.9% and the “Uptake of DDC (early-apoptosis quadrant)” value (Jurkat cells [1]; control cells, with Ca2+ 1 mM) was 4.11%. For the same compound, the “DDC binding to cells in the late stages of apoptosis in response to rottlerin” value (Jurkat cells [1]; right upper quadrant (DDC and PI positive), rottlerin 1 μM) was “did not manifest alterations in DDC binding”, the “DDC binding by cells in early apoptosis with pan-caspase inhibitor” value (Jurkat cells [2]; anti-Fas 3 h + Z-VAD-fmk 50 μM, DDC 50 μM 5 min) was “abolished this DDC binding” and the “DDC binding by cells in early apoptosis (peak B)” value (Jurkat cells [2]; anti-Fas 3 h without Z-VAD-fmk, DDC 50 μM 5 min) was “marked DDC binding”. For the same compound, the “DDC binding to cells in the late stages of apoptosis (peak C) with pan-caspase inhibitor” value (Jurkat cells [2]; anti-Fas + Z-VAD-fmk 50 μM) was “no significant alterations”.
